In US20260174766A1, “COMBINATION OF MENIN INHIBITOR(S) AND IMMUNOPROTEASOME INHIBITOR(S) FOR TREATMENT OF LEUKEMIA” (Medizinische Hochschule Hannover, priority 2022, published 2026):

Test system: MLL-AF9 driven leukemia
Test: MLL-AF9 driven murine leukemia, in vivo PR-957 treatment of primary recipients
Parameters: species or system mouse
Procedure: For induction of MLL-AF9 (MA9) driven leukemia we used established retroviral MSCV-GFP-based vectors to express MA9 in hematopoietic stem- and progenitor cells (Lineage-negative, Sca1-positive, Kit-positive [LSK] cells). In detail, bone marrow (BM) of LMP7+/+ or LMP7−/− littermates was isolated following standard procedures from 6-12-weeks-old mice. Lineage-depletion was performed using Streptavidin Particles Plus-DM (BD Biosciences, Heidelberg, Germany) and a DynaMag magnet (Thermo Fisher Scientific). Lineage-depleted cells were stained with streptavidin BV421, KIT AF647 and Sca-1 FITC or PE antibodies (all antibodies were received from Biolegend, San Diego, CA, USA) and then used for cell sorting. Sorted LSK cells were pre-stimulated on RetroNectin-coated plates (Takara Bio USA, Inc., Mountain View, CA, USA) in serum-free medium (StemSpan™ SFEM, StemCell Technologies, Vancouver, Canada) supplemented with SCF, TPO, IL-3 and IL-6 (all cytokines from PeproTech, Hamburg, Germany) overnight. 20 hours after stimulation, LSK cells were infected twice (8 hours gap) by spinfection (872 g, 1.5 hours, 33° C.) with retroviral particles containing the oncogenic vectors. Cells were analyzed 48 hours after first infection for GFP-expression using flow cytometry and 7.5×10^4 GFP+ cells were injected into sublethally irradiated (7 Gy, single dose) primary recipient mice (C57BL/6J; females). For serial transplantation of leukemia, 3×10^5 whole bone marrow cells of diseased animals were transplanted into secondary C57BL/6J recipient mice (sublethal irradiation, 7 Gy, single dose). […]
To characterize the effects of LMP7/PSMB8 inhibition in more detail, differentiation following PR-957 treatment was assessed. […]

**Q.** For COc1ccc(C[C@H](NC(=O)[C@H](C)NC(=O)CN2CCOCC2)C(=O)N[C@@H](Cc2ccccc2)C(=O)[C@]2(C)CO2)cc1 [PR-957, (2S)-3-(4-methoxyphenyl)-N-[(2S)-1-[(2S)-2-methyloxiran-2-yl]-1-oxo-3-phenylpropan-2-yl]-2-[[(2S)-2-[(2-morpholin-4-ylacetyl)amino]propanoyl]amino]propanamide], which “leukemic cells in the peripheral blood and spleen size” value (6 mg/kg i.v. QD 3 weeks (5 days per week), 3 days after discontinuation, vs diluent, FIG. 2B,C) is on record?
**A.** Its value is “reduced compared to diluent treated controls”.

**Q.** And the “abundance of leukemic cells in the bone marrow” value (6 mg/kg i.v. QD 3 weeks (5 days per week), control 69.8%, FIG. 2D)?
**A.** Its value is 42.9%.

**Q.** What about the “frequency of L-GMP populations” value (6 mg/kg i.v. QD 3 weeks, diluent control 3.57+/-0.52%, p=0.0087, FIG. 2E) of the same molecule?
**A.** Its value is 2.25+/−0.8%.
